Legend:
Assay type in all cases: physicochemical
[1] = Chemical compatibility of the compound of formula (I) with polymers: melt extrudates analysed by HPLC for total impurity; conditions: hot melt extrusion
Excerpt: Assay, Degradation Products/Impurities by HPLC
Principle: RP HPLC with UV detection
• Acetonitrile (HPLC grade, e.g. Merck) • Water (e.g. from Milli-Q instrument) • Methanol (Analytical grade, e.g. Sigma-Aldrich or equivalent) • Solvent: Water/acetonitrile 40/60 (v/v)
• Apparatus: e.g. HP 1290 (UPLC) • Column: Waters Acquity BEH C18 (Length 100 mm, internal diameter 2.1 mm or equivalent column and particle size 1.7 μm)
• Mobile Phase: • A: Water/Acetonitrile/TFA (95:5:0.05 v/v/v) • B: Water/Acetonitrile/TFA (5:95:0.05 v/v/v)
Column temperature: 30° C. Auto-sampler temperature: Ambient Needle wash: Methanol/water 80/20 (v/v) Injection volume: • 2 μl of the test and reference solutions, equivalent to about • 0.6 μg of drug substance compound of formula (I) in the reference solution Run time: 18 min […]
The compatibility of the compound of formula (I) with various polymers was tested by preparing melt extrudates according to the manufacturing process as described in example 1 and analyzing the resulting melt extrudates by HPLC to determine the amount of degradation or related products (“impurities”) of the compound of formula (I). […] The amount of total impurities was assessed according to the guideline that the sum of specified and unspecified impurities (herein referred to as total impurity) is preferably not more than (NMT) 0.5%. […]

[2] = Kinetic solubility of melt extrudates (rotating bottle); conditions: aqueous buffer; melt extrudates equivalent to 100 mg compound of formula (I), pH 6.8 phosphate buffer, rotating bottle 50 rpm, 37° C.
Protocol: • Principle: Measurement of the amount of drug substance solubilized using rotating bottle apparatus. Determination by HPLC/UV method for sample analysis.
• Speed of rotation: 50 rpm • Test medium: […] • Volume of test medium: 75 mL • Temperature: 37±0.5° C. Sampling Time points 5, 10, 15, 20, 25, 30, 45, 60 minutes
Procedure: The concentration maximum is taken as kinetic solubility value.
(§1) Melt extrudates were prepared according to example 1. The kinetic solubility and the physical state of the compound of formula (I) were determined. […] Kinetic solubility were determined by adding melt extrudates equivalent to 100 mg of the compound of formula (I) in pH 6.8 phosphate buffer using a rotating bottle at 50 rpm and at a temperature of 37° C. The physical state (crystalline or amorphous) was determined by XRPD (discrete peaks indicating some of the material being in a crystalline state, absence of peaks indicating amorphous state).

[3] = Physical state of compound of formula (I) in melt extrudates by XRPD
Protocol: X-Ray Powder Diffraction (XRPD) Analysis
• Principle: X-ray powder diffraction (XRPD) in reflection geometry • Equipment: Powder diffractomer e.g. type Bruker D8 Discover • Procedure: Place the test substance on the specimen holder. Record the X-ray diffraction pattern between 5° and 40° (2-theta) with Cu Kα radiation (1.5406 Å) in reflection geometry using the following conditions • Detector type: Lynx Eye • High voltage: 40 kV • Current: 40 mA • Scan type: continuous • Step time: 0.3 s • Step size: 0.016° • Soller slit: 2.5° • Slits: 0.6 mm • Method: A part of the sample is used without preparation for the measurement. […] Record the X-ray diffraction pattern between 5° and 40° (2Theta) with CuKα radiation. • Evaluation: Observe the recorded diffractogram and report any detectable diffraction peak. […]
as §1

processing temperature leading to degradation of compound of formula (I) [1]: exceeding 205 °C
solubility kinetic [2]: ~40 µg/mL
Physical state of compound of formula (I) (XRPD) [3]: Crystalline
Structure (SMILES): C[C@H]1OC(=O)N(c2cc(-c3cnc(N)nc3C(F)(F)F)nc(N3CCOCC3)n2)[C@H]1CO [compound of formula (I), (4S,5R)-3-(2′-Amino-2-morpholin-4-yl-4′-trifluoromethyl-[4,5]bipyrimidinyl-6-yl)-4-hydroxymethyl-5-methyl-oxazolidin-2-one]

Reference: US20170209455A1, “Solid Pharmaceutical Composition Comprising PI3K-Inhibitor” (NOVARTIS AG, priority 2014, published 2017)
